Among the test systems are A498 renal; CCRF-CEM leukemia; HCT-116 colon; HT29 colon; LOX IMVI melanoma; NCI-H522 lung; OVCAR-5 ovarian; SK-MEL-2 melanoma; SK-OV-3 ovarian; UO-31 renal.
Experiment in all cases: inhibition of tumour cell growth, NCI panel, 48 h

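Protocol summary: plate cells (96-well), add compound at 5 concentrations, incubate 48 h, interpolate endpoints linearly. GI50 is the concentration that inhibits growth by half. TGI: total growth inhibition.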

Take `CC(C)N(C(=O)C12C3C4C5C3C1(C(=O)N(C(C)C)C(C)C)C5(C#N)C42)C(C)C` (configuration not stated): the TGI in the test with A498 renal is greater than 100 µM; in the test with CCRF-CEM leukemia, 51.6 µM; in the test with HCT-116 colon it was greater than 100 µM; in the test on HT29 colon, greater than 100 µM; with LOX IMVI melanoma, 47.2 µM; in the test with NCI-H522 lung, greater than 100 µM. Also, the TGI in the test with OVCAR-5 ovarian, in the test with SK-MEL-2 melanoma, in the test on SK-OV-3 ovarian and in the test on UO-31 renal was greater than 100 µM throughout.
As for `CC(=O)OCCOCNC(=S)N/N=C/c1ccc2ccccc2n1`, the TGI is greater than 100 µM with A498 renal; greater than 100 µM in the test with CCRF-CEM leukemia; greater than 100 µM in the test with HCT-116 colon; greater than 100 µM in the test on HT29 colon; greater than 100 µM in the test on LOX IMVI melanoma; 62.7 µM with NCI-H522 lung. Moreover, the TGI in the test with OVCAR-5 ovarian was 65.5 µM; with SK-MEL-2 melanoma, greater than 100 µM; in the test with SK-OV-3 ovarian, greater than 100 µM; in the test on UO-31 renal, greater than 100 µM.
Consider `Clc1ccccc1C(n1ncc2ccccc21)n1ncc2ccccc21`, for which the TGI in the test on A498 renal, with CCRF-CEM leukemia, with HCT-116 colon, with HT29 colon, in the test with LOX IMVI melanoma and in the test on NCI-H522 lung was greater than 100 µM throughout. Moreover, the TGI in the test with OVCAR-5 ovarian was greater than 100 µM; in the test with SK-MEL-2 melanoma, greater than 100 µM; with SK-OV-3 ovarian, greater than 10 µM; in the test on UO-31 renal it was 94.4 µM.
Regarding `CC(=O)Nc1ccc(-c2c3nc(c(-c4cc5ccccc5[n+](C)c4)c4ccc([nH]4)c(-c4ccc(NC(C)=O)cc4)c4nc(c(-c5cc6ccccc6[n+](C)c5)c5ccc2[nH]5)C=C4)C=C3)cc1`, the GI50 was 5.16 µM with A498 renal; 0.721 µM with CCRF-CEM leukemia; 22 µM in the test with HCT-116 colon; 40.3 µM with HT29 colon; 12.5 µM in the test on LOX IMVI melanoma; 14.6 µM with NCI-H522 lung. Further, the GI50 was 8.54 µM in the test on OVCAR-5 ovarian, 15 µM in the test with SK-MEL-2 melanoma, 11.1 µM in the test on SK-OV-3 ovarian and 10.6 µM in the test on UO-31 renal. The TGI with A498 renal was 36.2 µM; in the test with CCRF-CEM leukemia, greater than 50 µM; in the test with HCT-116 colon it was greater than 50 µM; in the test on HT29 colon it was greater than 50 µM; with LOX IMVI melanoma, greater than 50 µM; with NCI-H522 lung it was greater than 50 µM. Besides, the TGI is greater than 50 µM with OVCAR-5 ovarian, greater than 50 µM with SK-MEL-2 melanoma, 35.6 µM in the test with SK-OV-3 ovarian and 33.6 µM in the test on UO-31 renal.
For the compound `Cc1ccc(C2CC(c3ccc([N+](=O)[O-])cc3)=Nc3ccccc3S2)cc1` (configuration not stated), the TGI in the test on A498 renal is 77.1 µM; in the test on CCRF-CEM leukemia, 34.2 µM; in the test with HT29 colon, 95.5 µM; with LOX IMVI melanoma, 34.6 µM; with NCI-H522 lung, 73.3 µM; in the test with OVCAR-5 ovarian it was greater than 100 µM. In addition, the TGI was 95 µM with SK-MEL-2 melanoma, greater than 100 µM with SK-OV-3 ovarian and greater than 100 µM with UO-31 renal.
`O=C(c1ccccc1)C(c1ccccc1)C1(O)C(=O)Nc2ccccc21` (configuration not stated): the TGI in the test on A498 renal, with CCRF-CEM leukemia, in the test with HCT-116 colon, in the test on HT29 colon, with LOX IMVI melanoma and in the test on NCI-H522 lung was greater than 100 µM throughout. In addition, the TGI in the test with OVCAR-5 ovarian, in the test on SK-MEL-2 melanoma, in the test with SK-OV-3 ovarian and in the test with UO-31 renal was greater than 100 µM in each case.
Turning to `COc1c(C2=NC(C(C)C)CO2)ccc2ccccc12` (configuration not stated), the TGI with A498 renal is greater than 100 µM; in the test on CCRF-CEM leukemia, greater than 100 µM; with HT29 colon it was greater than 100 µM; with LOX IMVI melanoma it was greater than 100 µM; in the test on NCI-H522 lung, 99.8 µM; in the test with OVCAR-5 ovarian it was greater than 100 µM. In addition, the TGI in the test with SK-MEL-2 melanoma, with SK-OV-3 ovarian and in the test on UO-31 renal was greater than 100 µM throughout.
On to `Cc1nc2ccccc2c(=O)n1/N=C(\N=Nc1cc(Cl)ccc1Cl)c1cccc(-c2ccco2)c1`, for which the TGI is greater than 100 µM in the test on A498 renal; greater than 10 µM with CCRF-CEM leukemia; greater than 100 µM with HCT-116 colon; greater than 100 µM with HT29 colon; greater than 100 µM in the test on LOX IMVI melanoma; greater than 100 µM with OVCAR-5 ovarian. Also, the TGI in the test on SK-MEL-2 melanoma, in the test with SK-OV-3 ovarian and in the test on UO-31 renal was greater than 100 µM throughout.
As to `CCCCSN1C(=O)c2ccccc2C1=S`, the TGI is greater than 100 µM in the test with A498 renal; 53 µM in the test on CCRF-CEM leukemia; greater than 100 µM with HCT-116 colon; greater than 100 µM with HT29 colon; greater than 100 µM with LOX IMVI melanoma; greater than 100 µM in the test with OVCAR-5 ovarian. Further, the TGI in the test with SK-MEL-2 melanoma, with SK-OV-3 ovarian and in the test on UO-31 renal was greater than 100 µM each time.
For `O=[N+]([O-])c1cc([N+](=O)[O-])c(Cl)c(Cl)c1Cl`, the GI50 in the test with A498 renal was 5.2 µM; in the test on CCRF-CEM leukemia, 0.459 µM; with HCT-116 colon, 0.24 µM; with HT29 colon it was 0.477 µM; in the test with LOX IMVI melanoma, 0.516 µM; with NCI-H522 lung, 0.23 µM. For the same compound, the GI50 is 1.76 µM in the test with SK-MEL-2 melanoma, 5.84 µM with SK-OV-3 ovarian and 1.51 µM with UO-31 renal. In addition, the TGI in the test with A498 renal is 17.9 µM; with CCRF-CEM leukemia, 5.78 µM; with HCT-116 colon, 0.743 µM; in the test with HT29 colon it was 1.99 µM; in the test with LOX IMVI melanoma, 1.86 µM; in the test on NCI-H522 lung, 0.605 µM. In addition, the figures for the TGI with SK-MEL-2 melanoma, in the test with SK-OV-3 ovarian and in the test with UO-31 renal were 3.42 µM, 18.4 µM and 3.08 µM, respectively.
On to `N=CCCN(CCC=N)c1ccc(/C=C2\CN(NC(=O)c3ccc(Cl)cc3)C(c3ccccc3)=N2)cc1`, for which the TGI with A498 renal, with CCRF-CEM leukemia, with HCT-116 colon, with HT29 colon, in the test on LOX IMVI melanoma and in the test with OVCAR-5 ovarian was greater than 100 µM each time. The TGI in the test on SK-MEL-2 melanoma, in the test with SK-OV-3 ovarian and with UO-31 renal was greater than 100 µM each time.
On to `CC1(C)C(c2ccccc2)C12CCC1(C2=O)C(c2ccccc2)C1(C)C` (configuration not stated), for which the TGI in the test on A498 renal was found to be 90.7 µM; in the test on CCRF-CEM leukemia it was 36.5 µM; in the test on HCT-116 colon, 33.6 µM; in the test with HT29 colon it was 35 µM; with LOX IMVI melanoma, 42.7 µM; in the test on NCI-H522 lung, 30.5 µM. In addition, the TGI worked out at 81.8 µM in the test with OVCAR-5 ovarian, 37 µM in the test with SK-MEL-2 melanoma and 58.9 µM with UO-31 renal.
